In patent US5162328A, “N-[3-[2-(1H-imidazol-1-yl)ethoxy]phenyl]-4-(2-thienyl)-2-pyrimidinamine and pharmacologically acceptable salts” (American Cyanamid Company, priority 1991, dated 1992):
Like-named read-outs stand apart in the source and are kept apart here.

Assay: Pharmacokinetics in dogs (plasma concentration by HPLC)
Format: in vivo, dog (beagle)
Conditions: dog; for concentration at 0.5 h / concentration at 1 h / concentration at 2 h / concentration at 4 h / concentration at 7 h / concentration at 12 h / AUC(0-t) / Cmax / Tmax / half-life / AUC(0-inf): plasma, po, 2 mg/kg/day, 2 mg/kg/day PO; for AUC(0-inf): read-out: AUCO- (to infinite time)
Description: Since dogs are used in toxicology studies of antiasthma compounds, this species is chosen for pharmacokinetic evaluations. Use of the dog permits the pharmacokinetic comparison of 2 or more compounds in the same test animal, an evaluation which could not be conveniently performed in a smaller species. For each test compound, normal dogs are given a dose of 2.0 mg/kg/day for 5 consecutive days. There is a washout period of 1 month between the study of each of the test compounds in the same four dogs. Each test compound is administered as a solution of 5 mg/ml in either 0.05 or 0.1N HCl which is dispensed into a gelatin capsule immediately prior to dosage.
Heparinized blood samples are obtained from each animal on the first, third and fifth day of dosage at 0.5, 1.0, 2.0, 4.0, 7.0, 12.0 and 24.0 hours after the dose. The samples are centrifuged immediately to obtain plasma which is frozen until analyzed.
Analysis of plasma is performed using High Performance Liquid Chromatography (HPLC). The analytical procedure is essentially identical for each compound. The internal standard used for N-[3-[2-(1H-imidazol-1-yl)ethoxy]phenyl]-4-(2-thienyl)2-pyrimidinamine is 2-chloro-11-(4-methyl-1-piperazinyl)dibenz[b,f][1,4]oxazepine succinate, while for 2-methyl-N^4 -[4-(4-pyridinyl)-2-pyrimidinyl]-1,4-benzenediamine dihydrochloride and N-[4-[2-(diethylamino)ethoxy]phenyl]-4-(4-pyridinyl)-2-pyrimidnamine dihydrochloride the internal standard is 7-ethoxy-coumarin. In a typical procedure, a 0.4 ml volume of acetonitrile containing internal standard is added a 0.2 ml volume of serum. The sample is mixed by vortexing and centrifuged. The clear protein free supernatent fluid is decanted into a clean tube and evaporated to dryness. The dry residue is dissolved in 0.2 ml of HPLC mobile phase and 50 ul of this solution injected. Peaks corresponding to the test compound being measured and to the internal standard compound are quantitated by their absorption of ultraviolet light at 280 nm. Each set of analytical samples is accompanied by the analysis of a group of standard dog plasma samples prepared to contain amounts of the compound being measured which encompasses the concentration range of the samples.
Four normal beagle dogs weighing between 9.2 and 10.2 Kg are used in the study.

Structure (SMILES): c1cc(Nc2nccc(-c3cccs3)n2)cc(OCCn2ccnc2)c1 [N-[3-[2-(1H-imidazol-1-yl)ethoxy]phenyl]-4-(2-thienyl)-2-pyrimidinamine]
- concentration in plasma over a 12 hour period (in words) (after first dose, FIG. 4): at a higher level for a longer period than the other test compounds
- concentration at 0.5 h (Dog 1, day 1, 0.5 h): 483 ng/mL
- concentration at 1 h (Dog 1, day 1, 1 h): 595 ng/mL
- concentration at 2 h (Dog 1, day 1, 2 h): 392 ng/mL
- concentration at 4 h (Dog 1, day 1, 4 h): 281 ng/mL
- concentration at 7 h (Dog 1, day 1, 7 h): 122 ng/mL
- concentration at 12 h (Dog 1, day 1, 12 h): < 30 ng/mL
- AUC(0-t) (Dog 1, day 1): 2160 ng·h/mL
- Cmax (Dog 1, day 1): 595 ng/mL
- Tmax (Dog 1, day 1): 1 h
- half-life (Dog 1, day 1): 2.75 h
- AUC(0-inf) (Dog 1, day 1): 2480 ng·h/mL
- concentration at 0.5 h (Dog 1, day 3, 0.5 h): < 30 ng/mL
- concentration at 1 h (Dog 1, day 3, 1 h): 125 ng/mL
- concentration at 2 h (Dog 1, day 3, 2 h): 98 ng/mL
- concentration at 4 h (Dog 1, day 3, 4 h): < 30 ng/mL
- concentration at 7 h (Dog 1, day 3, 7 h): < 30 ng/mL
- concentration at 12 h (Dog 1, day 3, 12 h): < 30 ng/mL
- AUC(0-t) (Dog 1, day 3): 143 ng·h/mL
- Cmax (Dog 1, day 3): 125 ng/mL
- Tmax (Dog 1, day 3): 1 h
- AUC(0-inf) (Dog 1, day 3): 398 ng·h/mL
- concentration at 0.5 h (Dog 1, day 5, 0.5 h): 339 ng/mL
- concentration at 1 h (Dog 1, day 5, 1 h): 418 ng/mL
- concentration at 2 h (Dog 1, day 5, 2 h): 267 ng/mL
- concentration at 4 h (Dog 1, day 5, 4 h): 112 ng/mL
- concentration at 7 h (Dog 1, day 5, 7 h): < 30 ng/mL
- concentration at 12 h (Dog 1, day 5, 12 h): < 30 ng/mL
- AUC(0-t) (Dog 1, day 5): 996 ng·h/mL
- Cmax (Dog 1, day 5): 418 ng/mL
- Tmax (Dog 1, day 5): 1 h
- half-life (Dog 1, day 5): 1.58 h
- AUC(0-inf) (Dog 1, day 5): 1290 ng·h/mL
- concentration at 0.5 h (Dog 2, day 1, 0.5 h): 185 ng/mL
- concentration at 1 h (Dog 2, day 1, 1 h): 334 ng/mL
- concentration at 2 h (Dog 2, day 1, 2 h): 251 ng/mL
- concentration at 4 h (Dog 2, day 1, 4 h): 161 ng/mL
- concentration at 7 h (Dog 2, day 1, 7 h): < 30 ng/mL
- concentration at 12 h (Dog 2, day 1, 12 h): < 30 ng/mL
- AUC(0-t) (Dog 2, day 1): 881 ng·h/mL
- Cmax (Dog 2, day 1): 334 ng/mL
- Tmax (Dog 2, day 1): 1 h
- half-life (Dog 2, day 1): 2.88 h
- AUC(0-inf) (Dog 2, day 1): 1300 ng·h/mL
- concentration at 0.5 h (Dog 2, day 3, 0.5 h): < 30 ng/mL
- concentration at 1 h (Dog 2, day 3, 1 h): 205 ng/mL
- concentration at 2 h (Dog 2, day 3, 2 h): 129 ng/mL
- concentration at 4 h (Dog 2, day 3, 4 h): 36 ng/mL
- concentration at 7 h (Dog 2, day 3, 7 h): < 30 ng/mL
- concentration at 12 h (Dog 2, day 3, 12 h): < 30 ng/mL
- AUC(0-t) (Dog 2, day 3): 383 ng·h/mL
- Cmax (Dog 2, day 3): 205 ng/mL
- Tmax (Dog 2, day 3): 1 h
- half-life (Dog 2, day 3): 1.18 h
- AUC(0-inf) (Dog 2, day 3): 477 ng·h/mL
- concentration at 0.5 h (Dog 2, day 5, 0.5 h): 54 ng/mL
- concentration at 1 h (Dog 2, day 5, 1 h): 222 ng/mL
- concentration at 2 h (Dog 2, day 5, 2 h): 149 ng/mL
- concentration at 4 h (Dog 2, day 5, 4 h): 30 ng/mL
- concentration at 7 h (Dog 2, day 5, 7 h): < 30 ng/mL
- concentration at 12 h (Dog 2, day 5, 12 h): < 30 ng/mL
- AUC(0-t) (Dog 2, day 5): 447 ng·h/mL
- Cmax (Dog 2, day 5): 222 ng/mL
- Tmax (Dog 2, day 5): 1 h
- half-life (Dog 2, day 5): 0.99 h
- AUC(0-inf) (Dog 2, day 5): 525 ng·h/mL
- concentration at 0.5 h (Dog 3, day 1, 0.5 h): 97 ng/mL
- concentration at 1 h (Dog 3, day 1, 1 h): 325 ng/mL
- concentration at 2 h (Dog 3, day 1, 2 h): 303 ng/mL
- concentration at 4 h (Dog 3, day 1, 4 h): 138 ng/mL
- concentration at 7 h (Dog 3, day 1, 7 h): 45 ng/mL
- concentration at 12 h (Dog 3, day 1, 12 h): < 30 ng/mL
- AUC(0-t) (Dog 3, day 1): 1160 ng·h/mL
- Cmax (Dog 3, day 1): 325 ng/mL
- Tmax (Dog 3, day 1): 1 h
- half-life (Dog 3, day 1): 1.82 h
- AUC(0-inf) (Dog 3, day 1): 1280 ng·h/mL
- concentration at 0.5 h (Dog 3, day 3, 0.5 h): 292 ng/mL
- concentration at 1 h (Dog 3, day 3, 1 h): 350 ng/mL
- concentration at 2 h (Dog 3, day 3, 2 h): 220 ng/mL
- concentration at 4 h (Dog 3, day 3, 4 h): 60 ng/mL
- concentration at 7 h (Dog 3, day 3, 7 h): < 30 ng/mL
- concentration at 12 h (Dog 3, day 3, 12 h): < 30 ng/mL
